Where a name gives a salt, the structure may show the parent alone.
Test: collision cross section in nitrogen (drift tube, single-field); higher = larger gas-phase ion size
[1] = ion type: [M+H], ion source: APCI, ion mode: Positive
[2] = ion type: [M+H], ion source: ESI, ion mode: Positive
[3] = ion type: [M+Na], ion source: ESI, ion mode: Positive
[4] = ion type: [M-H], ion source: ESI, ion mode: Negative
[5] = ion type: [M+], ion source: APCI, ion mode: Positive
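Also: chemical standards at 10 µM analysed by drift tube IMS-QTOF MS in about 3.95 torr nitrogen, mean of duplicate injections differing ≤1%, mass error below 10 ppm.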

SMILES | collision cross section in nitrogen [1] | collision cross section in nitrogen [2] | collision cross section in nitrogen [3] | collision cross section in nitrogen [4] | collision cross section in nitrogen [5]
N#Cc1ccc(C2CCCc3cncn32)cc1 (stereo not drawn) [Fadrozole] | – | 157.3 Å² | – | – | –
NC(N)=Nc1nc(CSCCC(N)=NS(N)(=O)=O)cs1 [Famotidine] | 168.7 Å² | 168.9 Å² | 174.3 Å² | 169.4 Å² | –
CC1(c2ccc(Oc3ccccc3)cc2)OC(=O)N(Nc2ccccc2)C1=O (stereo not drawn) [Famoxadone] | – | – | 210.6 Å² | 195.7 Å² | –
COP(=S)(OC)Oc1ccc(S(=O)(=O)N(C)C)cc1 [Famphur] | 174 Å² | – | 173.8 Å² | – | –
CSC1=N[C@@](C)(c2ccccc2)C(=O)N1Nc1ccccc1 [Fenamidone] | 172.6 Å² | 172.7 Å² | – | 174.6 Å² | –
CCOP(=O)(NC(C)C)Oc1ccc(S(C)(=O)=O)c(C)c1 (stereo not drawn) [Fenamiphos sulfone] | 182.4 Å² | 180.3 Å² | 181.5 Å² | 176.7 Å² | –
CCOP(=O)(NC(C)C)Oc1ccc(SC)c(C)c1 (stereo not drawn) [Fenamiphos] | 172.5 Å² | 171.3 Å² | 178.1 Å² | 172.2 Å² | –
CC1(C(=O)Nc2ccc(O)c(Cl)c2Cl)CCCCC1 [Fenhexamid] | 166.7 Å² | 166.4 Å² | – | 172.6 Å² | –
CC1(C)C(C(=O)OC(C#N)c2cccc(Oc3ccccc3)c2)C1(C)C (stereo not drawn) [Fenpropathrin] | – | – | 186 Å² | – | –
CCOP(=S)(OCC)Oc1ccc(S(C)=O)cc1 (stereo not drawn) [Fensulfothion] | – | 174.5 Å² | 169.7 Å² | – | –
COP(=S)(OC)Oc1ccc(SC)c(C)c1 [Fenthion] | – | 161.6 Å² | 166.3 Å² | – | –
N#Cc1nn(-c2c(Cl)cc(C(F)(F)F)cc2Cl)c(N)c1S(=O)C(F)(F)F (stereo not drawn) [Fipronil] | – | – | – | 178.1 Å² | –
COc1ncc(F)c2nc(S(=O)(=O)Nc3c(F)cccc3F)nn12 [Florasulam] | 172.3 Å² | 172.1 Å² | 181.7 Å² | 174.5 Å² | –
O=[N+]([O-])c1cc(C(F)(F)F)c(Cl)c([N+](=O)[O-])c1Nc1ncc(C(F)(F)F)cc1Cl [Fluazinam] | – | – | – | 182.2 Å² | –
Cc1cc(C(F)(C(F)(F)F)C(F)(F)F)ccc1NC(=O)c1cccc(I)c1C(=O)NC(C)(C)CS(C)(=O)=O [Flubendiamide] | – | – | 222.6 Å² | 222.1 Å² | –
COc1nn(C(=O)NS(=O)(=O)c2ccccc2OC(F)(F)F)c(=O)n1C [Flucarbazone-sodium] | – | – | – | 182.9 Å² | –
CC(C)C(C(=O)OC(C#N)c1cccc(Oc2ccccc2)c1)c1ccc(OC(F)F)cc1 (stereo not drawn) [Flucythrinate] | 214.8 Å² | – | 208.3 Å² | – | –
N#Cc1c[nH]cc1-c1cccc2c1OC(F)(F)O2 [Fludioxonil] | – | – | – | 146.3 Å² | –
CC(C)N(C(=O)COc1nnc(C(F)(F)F)s1)c1ccc(F)cc1 [Flufenacet] | – | – | 187.5 Å² | – | –
O=C(NC(=O)c1c(F)cccc1F)Nc1ccc(Oc2ccc(C(F)(F)F)cc2Cl)cc1F [Flufenoxuron] | – | – | – | 215.8 Å² | –
Cc1ccn2nc(S(=O)(=O)Nc3c(F)cccc3F)nc2n1 [Flumetsulam] | 167.4 Å² | 167.7 Å² | 176.7 Å² | 172.5 Å² | –
CCCCCOC(=O)COc1cc(N2C(=O)C3=C(CCCC3)C2=O)c(F)cc1Cl [Flumiclorac-pentyl] | – | – | 209.5 Å² | 196.2 Å² | –
C#CCN1C(=O)COc2cc(F)c(N3C(=O)C4=C(CCCC4)C3=O)cc21 [Flumioxazin] | – | 183.7 Å² | – | 184.5 Å² | 181 Å²
CN(C)C(=O)Nc1cccc(C(F)(F)F)c1 [Fluometuron] | 150.5 Å² | 150.1 Å² | 155 Å² | 146.2 Å² | –
CO/N=C(/C1=NOCCO1)c1ccccc1Oc1ncnc(Oc2ccccc2Cl)c1F [Fluoxastrobin] | 204.8 Å² | 204.3 Å² | 208.1 Å² | – | –
Nc1c(Cl)c(F)nc(OCC(=O)O)c1Cl [Fluroxypyr] | – | – | – | 141.3 Å² | –
C[Si](Cn1cncn1)(c1ccc(F)cc1)c1ccc(F)cc1 [Flusilazole] | 176.6 Å² | 174.9 Å² | – | – | –

Continued, in another order:

collision cross section in nitrogen [1] | collision cross section in nitrogen [2] | collision cross section in nitrogen [3] | collision cross section in nitrogen [4] | SMILES | collision cross section in nitrogen [5]
175.1 Å² | 174.8 Å² | – | – | Cc1[nH]cnc1C[C@H]1CCc2c(C)c3ccccc3n2C1=O [Fabesetron hydrochloride] | –
– | – | 216.3 Å² | 204.7 Å² | CCc1cc(C2=C(C(=O)O)N(c3ccccc3C(F)(F)F)S(=O)(=O)c3ccccc32)cc2c1OCO2 [Fandosentan potassium salt] | –
217.4 Å² | 217.1 Å² | 224.1 Å² | 228.5 Å² | Cc1oc(-c2ccccc2)nc1CCOc1ccc(C[C@H](Nc2ccccc2C(=O)c2ccccc2)C(=O)O)cc1 [Farglitazar] | –
– | 183.6 Å² | – | – | Cc1nc(-c2ccc(OCC(C)C)c(C#N)c2)sc1C(=O)O [Febuxostat] | –
– | – | 159.6 Å² | – | NC(=O)OCC(COC(N)=O)c1ccccc1 [Felbamate] | –
175 Å² | 174.6 Å² | – | 174.9 Å² | COC(=O)Nc1nc2cc(Sc3ccccc3)ccc2[nH]1 [Fenbendazole] | –
– | 192.8 Å² | 198.4 Å² | – | CC(C)OC(=O)C(C)(C)Oc1ccc(C(=O)c2ccc(Cl)cc2)cc1 [Fenofibrate] | –
– | 189.8 Å² | 189 Å² | – | CCOC(=O)[C@H](C)Oc1ccc(Oc2nc3ccc(Cl)cc3o2)cc1 [Fenoxaprop-(2S)-ethyl] | –
189.9 Å² | 189.5 Å² | 189 Å² | – | CCOC(=O)[C@@H](C)Oc1ccc(Oc2nc3ccc(Cl)cc3o2)cc1 [Fenoxaprop-P-ethyl] | –
190.2 Å² | 189.3 Å² | 189.1 Å² | – | CCOC(=O)C(C)Oc1ccc(Oc2nc3ccc(Cl)cc3o2)cc1 (stereo not drawn) [Fenoxaprop-ethyl] | –
– | – | 184.6 Å² | – | CCOC(=O)NCCOc1ccc(Oc2ccccc2)cc1 [Fenoxycarb] | –
134 Å² | 134.4 Å² | 144.7 Å² | 137 Å² | CN(C)C(=O)Nc1ccccc1 [Fenuron] | –
204.7 Å² | 203.3 Å² | 226.8 Å² | 198.1 Å² | CC(C)(C)NC(=O)[C@H]1CC[C@H]2[C@@H]3CC[C@H]4NC(=O)C=C[C@]4(C)[C@H]3CC[C@]12C [Finasteride] | –
190.4 Å² | 190.3 Å² | 202.1 Å² | – | O=C(COc1ccc(Cl)cc1)N1CCN(Cc2ccc3c(c2)OCO3)CC1 [Fipexide hydrochloride] | –
182.1 Å² | – | 193.4 Å² | – | CC(C)OC(=O)C(C)N(C(=O)c1ccccc1)c1ccc(F)c(Cl)c1 (stereo not drawn) [Flamprop-isopropyl] | –
146.6 Å² | 146.5 Å² | – | – | O=c1cc(-c2ccccc2)oc2ccccc12 [Flavone] | –
195.5 Å² | 195.1 Å² | 194.4 Å² | 188.7 Å² | CCCCOC(=O)C(C)Oc1ccc(Oc2ccc(C(F)(F)F)cn2)cc1 (stereo not drawn) [Fluazifop-butyl] | –
167.5 Å² | 167.2 Å² | 172 Å² | – | OC(Cn1cncn1)(Cn1cncn1)c1ccc(F)cc1F [Fluconazole] | –
– | – | – | 160.9 Å² | O=C(O)c1ccccc1Nc1cccc(C(F)(F)F)c1 [Flufenamic acid] | 157.7 Å²
– | 182.1 Å² | 191.4 Å² | 183.3 Å² | CCOC(=O)COc1cc(-n2ncc(C(F)(F)F)c(C)c2=O)c(F)cc1Cl [Flufenpyr-ethyl] | –
– | – | 226.8 Å² | 194.2 Å² | CC1(C)O[C@@H]2C[C@H]3[C@@H]4C[C@H](F)C5=CC(=O)C=C[C@]5(C)[C@@]4(F)[C@@H](O)C[C@]3(C)[C@]2(C(=O)CO)O1 [Fluocinolone acetonide] | –
– | 175.4 Å² | 187 Å² | – | O=C(NCc1ncc(C(F)(F)F)cc1Cl)c1c(Cl)cccc1Cl [Fluopicolide] | –
174.3 Å² | 173.8 Å² | 189.1 Å² | 176.1 Å² | O=C1OC2(c3ccc(O)cc3Oc3cc(O)ccc32)c2ccccc21 [Fluorescein sodium] | –
174.2 Å² | 174.2 Å² | 190.6 Å² | 176.8 Å² | O=C1OC2(c3ccc(O)cc3Oc3cc(O)ccc32)c2ccccc21 [Fluorescein] | –
– | – | 210.7 Å² | – | CCOC(=O)COC(=O)c1cc(Oc2ccc(C(F)(F)F)cc2Cl)ccc1[N+](=O)[O-] [Fluoroglycofen-ethyl] | –
186.6 Å² | – | 211.3 Å² | – | CC(=O)[C@@]1(O)CC[C@H]2[C@@H]3C[C@H](C)C4=CC(=O)C=C[C@]4(C)[C@@]3(F)[C@@H](O)C[C@@]21C [Fluorometholone] | –
– | – | – | 175.5 Å² | O=C(Nc1cccc(C(F)(F)F)c1)c1cc(Br)cc(Br)c1O [Fluorosalan] | –
– | 186.9 Å² | – | 201.8 Å² | CC1(C)O[C@@H]2C[C@H]3[C@@H]4C[C@H](F)C5=CC(=O)CC[C@]5(C)[C@H]4[C@@H](O)C[C@]3(C)[C@]2(C(=O)CO)O1 [Flurandrenolide] | –
– | – | 194.3 Å² | 176.2 Å² | CCCCCCC(C)OC(=O)COc1nc(F)c(Cl)c(N)c1Cl (stereo not drawn) [Fluroxypyr-meptyl] | –
– | – | – | 154.9 Å² | CC(C)C(=O)Nc1ccc([N+](=O)[O-])c(C(F)(F)F)c1 [Flutamide] | –
